Assay results published in article PMC7824826, “SZR-104, a Novel Kynurenic Acid Analogue with High Permeability through the Blood–Brain Barrier” (Pharmaceutics, 2021).

Key:
[1] = tested on: in vitro blood–brain barrier model (primary rat brain endothelial cells and pericytes on Transwell filters, glial-conditioned media); experiment: Permeability assay through the in vitro BBB model; assay type: in vitro ADME; settings: for Papp% (permeability coefficient compared to sodium-fluorescein) / Papp % (permeability coefficient compared to KYNA): 10 µM in top compartment; for Papp% (permeability coefficient compared to sodium-fluorescein): N = 2, relative to sodium-fluorescein; for Permeability compared to other analogues: p < 0.05; for BBB penetration compared to the other derivatives tested: conclusion; for Papp % (permeability coefficient compared to KYNA): N = 3, relative to KYNA; for Differences among permeability of KYNA, xanthurenic acid and 39B: 30 and 60 min
Method: Primary rat brain endothelial cells (RBECs) were isolated from 2-week old rats. Animals were sacrificed by cervical dislocation. Briefly, after removal of meninges, cerebral cortices were cut into small pieces and digested in two steps with 1 mg/mL collagenase type 2 and 1 mg/mL collagenase/dispase, followed by centrifugation on a percoll gradient (all from Sigma-Aldrich, St. Louis, MO, USA). Isolated microvessels were plated on fibronectin/collagen-coated dishes. Endothelial cells growing out of the microvessels were cultured in DMEM/F12 (Thermo Fisher Scientific, Waltham, MA, USA), 10% plasma-derived serum (PDS, First Link UK Ltd, Birmingham, UK) and growth factors. In the first two days, 4 µg/mL puromycin (Sigma-Aldrich) was added to remove contaminating cells. Cells were frozen in liquid nitrogen and passage 1 cells were further used. Rat brain pericytes were obtained from cerebral microvessels plated onto rat-tail collagen-coated dishes in PM medium (ScienCell, Carlsbad, CA, USA) complemented with 5% fetal bovine serum (FBS) and penicillin/streptomycin. Cells were split into new dishes, frozen in liquid nitrogen and passage 4 cells were further used. Glial cultures (>90% astrocytes) were prepared from newborn rats and cultured on poly-L-lysine-coated surfaces in DMEM (Thermo Fisher Scientific) and 10% FBS (Thermo Fisher Scientific). After reaching confluence, conditioned media was collected twice a week, centrifuged, sterile filtered and kept at −20 °C.
Pericytes were plated onto the backside of 12-well semipermeable filters (Corning-Costar Transwell Clear; pore size: 0.4 μm; 1.5 × 10^4 cells/filter). The next day, RBECs were plated onto the upper surface of the filters. […] TEER was followed until reaching plateau of 150–250 Ohm × cm^2.
Transwell filters containing endothelial cells and pericytes were removed from the CellZscope instrument. Filters were washed with Ringer-HEPES solution (pH = 7.4). […] The bottom compartment was loaded with Ringer-HEPES. Filters were placed to 37 °C and gentle shaking (110 rpm) was applied. Samples were taken from the basolateral side after 30 and 60 min. The concentrations of the samples were quantitated as described below and apparent permeability was calculated using the formula: Papp = dQ/(dT × A × C0), where dQ is the transported amount, dT is the incubation time, A is the surface of filter (1.12 cm^2), and C0 is the initial concentration. Statistical analysis was performed with ANOVA and Bonferroni’s post-hoc test.
The concentrations of the samples were quantitated with an Agilent 1100 HPLC system (Agilent Technologies, Santa Clara, CA, USA), consisting of a binary pump, a micro vacuum degasser, a thermostated column compartment, an automatic liquid sampler, a MS detector (LCMSD VL), and ChemStation data managing software. Chromatographic separations with the HPLC-MS system were performed on a Kinetex C18 column, 100 × 4.6 mm 2.6 μm particle size (Phenomenex, Torrance, CA, USA) with a mobile phase composition of 0.05% aqueous HCOOH/ACN = 90/10 (v/v), applying isocratic elution. The flow rate and the injection volume were 1 mL/min and 20 µL, respectively. The mass spectrometer was used in positive electrospray ionization mode. The drying gas temperature, drying gas flow rate, nebulizer pressure and capillary voltage were 350 °C, 13 L/min, 60 psi and 3500 V, respectively. […]

[2] = tested on: human lymphoma U-937 cells; parameters: method as in PMID 31316502; settings: U-937 cells infected with Staphylococcus aureus; cited from earlier work
[3] = tested on: c-fos and glutamate in NTC neurons; parameters: method as in PMID 28337634; settings: systematic injection; cited from earlier work
MAPK and NFκB = settings: intraperitoneally administered; cited from earlier work
NTC = tested on: NTC; parameters: method as in PMID 27919017; settings: cited from earlier work
[4] = tested on: PACAP mRNA expression in nucleus trigeminalis caudalis; parameters: method as in PMID 29387039; settings: animal model of migraine; cited from earlier work
hippocampus = tested on: hippocampus; parameters: method as in PMID 22231843; settings: systemic administration; cited from earlier work
[5] = tested on: transgenic mouse model of HD; parameters: method as in PMID 21194001; settings: cited from earlier work

O=C(NCCN1CCCC1)c1nc2ccccc2c(O)c1CN1CCCCC1 [SZR-101]
Papp% (permeability coefficient compared to sodium-fluorescein) ([1]; 60 min): 131%

O=C(NCCN1CCCC1)c1nc2ccccc2c(O)c1CN1CCOCC1 [SZR-105]
TNF-α production [2]: reduced
mRNA expression of TSG-6 [2]: increased
Papp% (permeability coefficient compared to sodium-fluorescein) ([1]; 60 min): 319%
Permeability compared to other analogues ([1]; 10 µM, 60 min): significantly higher
BBB penetration compared to the other derivatives tested [1]: high BBB penetration

O=C(O)c1cc(=O)c2ccccc2[nH]1 [KYNA, kynurenic acid]
Elevated levels of c-fos and glutamate in NTC neurons [3]: abolished
Overexpression of MAPK and NFκB (MAPK and NFκB): reduced
Nitroglycerin-induced neuronal activation in NTC (antihyperalgesic effect) (NTC): attenuating
Electrical TRG stimulation-induced PACAP mRNA expression in NTC [4]: decreased
Papp % (permeability coefficient compared to KYNA) ([1]; 30 min): 100%
Papp % (permeability coefficient compared to KYNA) ([1]; 60 min): 100%
Differences among permeability of KYNA, xanthurenic acid and 39B ([1]; 10 µM): not statistically significant

O=C(NCCN1CCCC1)c1nc2ccccc2c(O)c1CN1CCCC1 [SZR-107]
Papp% (permeability coefficient compared to sodium-fluorescein) ([1]; 60 min): 156%

CN(C)CCNC(=O)c1nc2ccccc2c(O)c1CN1CCOCC1 [SZR-104, N-(2-(dimethylamino)ethyl)-3-(morpholinomethyl)-4-hydroxyquinoline-2-carboxamide]
Population spike activity in the hippocampus (hippocampus): decreased
Protection against pentylenetetrazol-induced epileptiform seizures (hippocampus): provided protection
TNF-α production [2]: reduced
mRNA expression of TSG-6 [2]: increased
Papp % (permeability coefficient compared to KYNA) ([1]; 30 min): 210%
Papp% (permeability coefficient compared to sodium-fluorescein) ([1]; 60 min): 325%
Papp % (permeability coefficient compared to KYNA) ([1]; 60 min): 222%
Permeability compared to other analogues ([1]; 10 µM, 60 min): significantly higher
Permeability compared to KYNA, xanthurenic acid or 39B ([1]; 10 µM, both at 30 min and 60 min, p < 0.01): significantly higher permeability
BBB penetration compared to the other derivatives tested [1]: high BBB penetration

O=C(O)c1[nH]c2c(O)cccc2c(=O)c1CN1CCOCC1 [39B, 8-Hydroxy-3-(Morpholinomethyl)-4-Oxo-1,4-Dihydroquinoline-2-Carboxylic Acid]
Papp % (permeability coefficient compared to KYNA) ([1]; 30 min): 54%
Papp % (permeability coefficient compared to KYNA) ([1]; 60 min): 74%
Differences among permeability of KYNA, xanthurenic acid and 39B ([1]; 10 µM): not statistically significant

CN(C)CCNC(=O)c1nc2ccccc2c(O)c1CN1CCCC1 [SZR-106]
Papp% (permeability coefficient compared to sodium-fluorescein) ([1]; 60 min): 230%

CN(C)CCNC(=O)c1cc(=O)c2ccccc2[nH]1 [SZR-72, N-(2-N,N-dimethylaminoethyl)-4-oxo-1H-quinoline-2-carboxamide]
Elevated levels of c-fos and glutamate in NTC neurons [3]: abolished
Overexpression of MAPK and NFκB (MAPK and NFκB): reduced
Nitroglycerin-induced neuronal activation in NTC (antihyperalgesic effect) (NTC): attenuating
Electrical TRG stimulation-induced PACAP mRNA expression in NTC [4]: decreased
Atrophy of the striatal neurons [5]: completely prevented
Hypolocomotion [5]: ameliorated
Lifetime of mice [5]: prolonged

CN(C)CCNC(=O)c1nc2ccccc2c(O)c1CN1CCCCC1 [SZR-100]
Papp% (permeability coefficient compared to sodium-fluorescein) ([1]; 60 min): 177%

O=C(O)c1cc(O)c2cccc(O)c2n1 [xanthurenic acid]
Papp % (permeability coefficient compared to KYNA) ([1]; 30 min): 110%
Papp % (permeability coefficient compared to KYNA) ([1]; 60 min): 89%
Differences among permeability of KYNA, xanthurenic acid and 39B ([1]; 10 µM): not statistically significant
